This is an account of results in article PMC8620390, “New Multi-Targeted Antiproliferative Agents: Design and Synthesis of IC261-Based Oxindoles as Potential Tubulin, CK1 and EGFR Inhibitors” (Pharmaceuticals, 2021).

The test system of test [1] is COLO-205. In words: Two-dose antiproliferative screening, SRB assay, COLO-205. The class given is cell-based, human. The following applies: triplicates; for inhibition at 1 µM / inhibition at 10 µM: Homo sapiens, COLO 205, 72 h; for inhibition at 1 µM: read-out: Growth Inhibition (%) COLO-205 1 μM Average; for inhibition at 10 µM: read-out: Growth Inhibition (%) COLO-205 10 μM Average. The protocol: (§1) MCF-7(breast adenocarcinoma), PC-3 (prostate cancer) and COLO-205 (colorectal cancer) were obtained from Nawah Scientific inc., (Mokatam, Cairo, Egypt). Cells were maintained in Dulbecco’s Modified Eagle’s media (DMEM media) supplemented with […] of streptomycin, 100 units/mL of penicillin and 10% of heat-inactivated fetal bovine serum in humidified, 5% (v/v) CO2 atmosphere at 37 °C.
(§2) Cell viability was assessed by the sulforhodamine B (SRB) assay. Aliquots of cell suspension (5 × 10^3 cells, 100 μL) were transferred into 96 well plates and incubated in complete media for 24 h. Cells were treated with another aliquot media (100 μL) containing compounds 3a–f, 4a–f, 6a–f, 7a–f, 9a–b at concentrations of 1 and 10 μM). After 72 h of drug exposure, cells were fixed by replacing media with trichloroacetic acid (TCA, 10%, 150 μL) and incubated at 4 °C for 1 h. The TCA solution was removed, and the cells were washed five times with distilled water. Aliquots of SRB solution (0.4%w/v, 70 μL) were added and incubated in a dark place at room temperature for 10 min. Plates were washed three times with 1% acetic acid and allowed to air dry overnight. Then, a solution of TRIS base and TRIS HCl (TRIS buffer, 10 mM, 150 μL) was added to dissolve protein bound SRB stain. The absorbance was measured at 540 nm using BMGLABTECH®–FLUOstar omega micro-plate reader (Ortenberg, Germany).
On the technique in general: Sulforhodamine B stains cellular protein and so reports cell mass.

Test [2] concerns MCF-7. In words: Two-dose antiproliferative screening, SRB assay, MCF-7. In kind it is cell-based. The following applies: Homo sapiens, MCF7, 72 h, triplicates; for inhibition at 1 µM: read-out: Growth Inhibition (%) MCF-7 1 μM Average; for inhibition at 10 µM: read-out: Growth Inhibition (%) MCF-7 10 μM Average. The protocol:
as §1, §2

Test [3] relates to PC-3. In words: Two-dose antiproliferative screening, SRB assay, PC-3. In kind it is cell-based. The settings on record: triplicates; for inhibition at 1 µM / inhibition at 10 µM: Homo sapiens, PC-3, 72 h; for inhibition at 1 µM: read-out: Growth Inhibition (%) PC-3 1 μM Average; for inhibition at 10 µM: read-out: Growth Inhibition (%) PC-3 10 μM Average; for Growth Inhibition (%) PC-3 10 μM Average: 72 h. The protocol: as §1, §2

Molecules are shown by their SMILES.

For `COc1cc(/C=C2/C(=O)N(Cc3ccc(Cl)cc3)c3ccccc32)cc(OC)c1OC` [Compound 6b, (E)-1-(4-Chlorobenzyl)-3-(3,4,5-trimethoxybenzylidene)indolin-2-one], the results for the inhibition at 1 µM in test [1], in test [2] and in test [3] were 3.9%, 1.13% and 1.04%, respectively. Besides, the inhibition at 10 µM was 45.8% in test [1] (10 μM), 32.2% in test [2] and 28.9% in test [3].

As for `COc1cc(/C=C2/C(=O)Nc3ccc(F)cc32)cc(OC)c1OC` [Compound 3d, (E)-5-fluoro-3-(3,4,5-trimethoxybenzylidene)indolin-2-one], the inhibition at 1 µM turned out to be 7.01% in test [1], 0.98% in test [2] and 2.02% in test [3]. Also, the figures for the inhibition at 10 µM in test [1] (10 μM), in test [2] and in test [3] were 11.8%, 3.6% and 1.91%, respectively.

In the case of `COc1cc(OC)c(/C=C2/C(=O)N(Cc3ccc(Cl)cc3)c3ccccc32)c(OC)c1` [Compound 7b, (E)-1-(4-chlorobenzyl)-3-(2,4,6-trimethoxybenzylidene)indolin-2-one], the inhibition at 1 µM in test [1] came to 3%; in test [2], 3.81%; in test [3], 1.05%. The inhibition at 10 µM in test [1] (10 μM) was determined as 3.33%; in test [2], 5.48%; in test [3], 3.15%.

Take `COc1cc(OC)c(/C=C2/C(=O)N(Cc3ccc(F)cc3)c3cc(Cl)ccc32)c(OC)c1` [Compound 7f, (E)-6-chloro-1-(4-fluorobenzyl)-3-(2,4,6-trimethoxybenzylidene) indolin-2-one]: the “Growth Inhibition (%) COLO-205 10 μM Average” value in test [1] (10 μM, 72 h) is listed as 3.97%. The inhibition at 1 µM was 3.33% in test [1], 10.3% in test [2] and 0.75% in test [3]. The inhibition at 10 µM came out at 16% in test [2] and 7.08% in test [3].

With `COc1cc(/C=C2/C(=O)Nc3ccccc32)cc(OC)c1OC` [Compound 3a, (E)-3-(3,4,5-trimethoxybenzylidene)indolin-2-one], the inhibition at 1 µM in test [1] was 1.18%; in test [2] it was 1.17%; in test [3], 1.92%. The inhibition at 10 µM in test [1] (10 μM) was 4.71%; in test [2], 3.44%; in test [3] it was 20.4%.

`COc1cc(OC)c(/C=C2/C(=O)N(Cc3ccccc3)c3cc(Cl)ccc32)c(OC)c1` [Compound 7d, (E)-1-benzyl-6-chloro-3-(2,4,6-trimethoxybenzylidene)indolin-2-one]: the inhibition at 1 µM in test [1] was 2.38%; in test [2], 0.49%; in test [3] it was 1.47%. In addition, the inhibition at 10 µM in test [1] (10 μM) was 15.6%; in test [2], 40.5%; in test [3] it was 19.9%.

Take `COc1cc(OC)c(/C=C2/C(=O)Nc3ncccc32)c(OC)c1` [Compound 4f, (E)-3-(2,4,6-trimethoxybenzylidene)-1,3-dihydro-2H-pyrrolo[2,3-b] pyridin-2-one]: the results for the inhibition at 1 µM in test [1], in test [2] and in test [3] were 7.64%, 11.5% and 23%, respectively. Besides, the values for the inhibition at 10 µM in test [1] (10 μM), in test [2] and in test [3] were 63.8%, 65.8% and 69.1%, respectively.

On to `COc1cc(/C=C2/C(=O)N(Cc3ccc(F)cc3)c3ccccc32)cc(OC)c1OC` [Compound 6c, (E)-1-(4-Fluorobenzyl)-3-(3,4,5-trimethoxybenzylidene)indolin-2-one], for which the inhibition at 1 µM was found to be 4.66% in test [1], 5.68% in test [2] and 0.69% in test [3]. Besides, the inhibition at 10 µM in test [1] (10 μM) is 13.6%; in test [2], 25%; in test [3] it was 8.22%.

In the case of `COc1cc(/C=C2/C(=O)N(Cc3ccccc3)c3cc(Cl)ccc32)cc(OC)c1OC` [Compound 6d, (E)-1-benzyl-6-chloro-3-(3,4,5-trimethoxybenzylidene)indolin-2-one], the inhibition at 1 µM in test [1] was 2.38%; in test [2] it was 0.68%; in test [3] it was 4.24%. Besides, the results for the inhibition at 10 µM in test [1] (10 μM), in test [2] and in test [3] were 8.68%, 48.4% and 7.34%, respectively.

As to `COc1ccc2c(c1)/C(=C\c1cc(OC)c(OC)c(OC)c1)C(=O)N2` [Compound 3e, (E)-5-methoxy-3-(3,4,5-trimethoxybenzylidene)indolin-2-one], the values for the inhibition at 1 µM in test [1], in test [2] and in test [3] were 2.34%, 21% and 32.9%, respectively. The inhibition at 10 µM in test [1] (10 μM) was 18.6%; in test [2], 65.3%; in test [3] it was 52 to 72%. Besides, in test [3], the “Growth Inhibition (%) PC-3 10 μM Average” value was found to be 61.38%.

As for `COc1cc(/C=C2/C(=O)Nc3ncccc32)cc(OC)c1OC` [Compound 3f, (E)-3-(3,4,5-trimethoxybenzylidene)-1,3-dihydro-2H-pyrrolo[2,3-b] pyridin-2-one], the inhibition at 1 µM was 1.52% in test [1], 0.36% in test [2] and 1.29% in test [3]. Also, the inhibition at 10 µM was 9.13% in test [1] (10 μM), 4.53% in test [2] and 3.57% in test [3].

Turning to `COc1cc(OC)c(/C=C2/C(=O)N(Cc3ccccc3)c3ccccc32)c(OC)c1` [Compound 7a, (E)-1-benzyl-3-(2,4,6-trimethoxybenzylidene)indolin-2-one], the inhibition at 1 µM came to 11.9% in test [1], 0.6% in test [2] and 0.65% in test [3]. For the same molecule, the inhibition at 10 µM in test [1] (10 μM) was found to be 20%; in test [2], 15.3%; in test [3], 8.59%.

In the case of `COc1cc(OC)c(/C=C2/C(=O)N(Cc3ccc(F)cc3)c3ccccc32)c(OC)c1` [Compound 7c, (E)-1-(4-fluorobenzyl)-3-(2,4,6-trimethoxybenzylidene)indolin-2-one], the inhibition at 1 µM in test [1] came to 4.66%; in test [2], 4.08%; in test [3], 0.89%. Besides, the inhibition at 10 µM is 18.3% in test [1] (10 μM), 25.9% in test [2] and 13.8% in test [3].

On to `COc1cc(OC)c(/C=C2/C(=O)N(Cc3ccc(Cl)cc3)c3cc(Cl)ccc32)c(OC)c1` [Compound 7e, (E)-6-chloro-1-(4-chlorobenzyl)-3-(2,4,6-trimethoxybenzylidene) indolin-2-one], for which the inhibition at 1 µM worked out at 3.82% in test [1], 1.59% in test [2] and 1.77% in test [3]. Further, the inhibition at 10 µM in test [1] (10 μM) was 22.1%; in test [2] it was 46.2%; in test [3] it was 52 to 72%. For the same molecule, the “Growth Inhibition (%) PC-3 10 μM Average” value in test [3] is reported as 51.68%.

`COc1cc(/C=C2/C(=O)N(Cc3ccccc3)c3ccccc32)cc(OC)c1OC` [Compound 6a, (E)-1-Benzyl-3-(3,4,5-trimethoxybenzylidene)indolin-2-one]: the inhibition at 1 µM in test [1] turned out to be 2.46%; in test [2], 1.74%; in test [3], 4.3%. The inhibition at 10 µM in test [1] (10 μM) came to 4.97%; in test [2], 48.5%; in test [3], 5.03%.

`COc1cc(/C=C2/C(=O)Nc3cc(Cl)ccc32)cc(OC)c1OC` [Compound 3b, (E)-6-chloro-3-(3,4,5-trimethoxybenzylidene)indolin-2-one]: the inhibition at 1 µM in test [1] was found to be 5.7%; in test [2], 1.14%; in test [3], 7.69%. Moreover, the inhibition at 10 µM in test [1] (10 μM) is 32.6%; in test [2] it was 41.2%; in test [3] it was 39%.

For `COc1cc(/C=C2/C(=O)Nc3ccc(Cl)cc32)cc(OC)c1OC` [Compound 3c, (E)-5-chloro-3-(3,4,5-trimethoxybenzylidene)indolin-2-one], the inhibition at 1 µM in test [1] is 2.86%; in test [2], 1.06%; in test [3], 1.42%. Besides, the inhibition at 10 µM stood at 6.41% in test [1] (10 μM), 8.56% in test [2] and 14.3% in test [3].

Usually inhibition stands for the relative decrease from the control value, in per cent.
